In US10550143B2, “C,O-spiro aryl glycoside compounds, preparation therefor and use thereof” (SHANGHAI INSTITUTE OF MATERIA MEDICA, CHINESE ACADEMY OF …, priority 2015, dated 2020):
Marks after values point to notes of the source that are not given here.

Key:
Type in all cases: in vivo, mouse
[1] = test system: db/db mice; assay: Chronic administration, fasting blood glucose in db/db mice; settings: for Hypoglycemic rate % week 1 / Hypoglycemic rate % week 2 / Hypoglycemic rate % week 3 / Hypoglycemic rate % week 4: fasting blood glucose
Procedure: (§1) Oral gavage administrated, daily dose volume was 10 mL/kg, administered once daily. Administration time was 9: 00-10:00 daily, and the administration period was 5 weeks.
The random blood glucose of mice in the normal control group, model control group, test substance administration group and positive control group were determined on the 7th, 14th, 21st, 28th day (9: 00-10:00) every week after the first administration, and food was removed and after 6 hours of starvation, the fasting blood glucose in each group was measured. Free drinking during the hunger process. The rate of decrease of blood glucose was calculated according to the following formula: Average hypoglycemic rate %=(Blood glucose of model control group−Blood glucose of administration group)/Model control group×100%

[2] = test system: db/db mice; assay: Chronic administration, glycosylated hemoglobin level in db/db mice; settings: for HbA1c Decline rate %: vs vehicle
Procedure: as §1
In the end of the above experiment, the orbital blood was taken from animals of each group and divided into two tubes, one was centrifuged to take blood cells for the determination of glycated hemoglobin content, the other tube was added with 25 μL EDTA in advance, centrifuged and the supernatant was taken to determine the indexes such as triglyceride (TG), total cholesterol (TC), total protein (TP), albumin, low density lipoprotein (LDL), high density lipoprotein (HDL), non-esterified fatty acid (NEFA) and so on.

[3] = test system: db/db mice; assay: Chronic administration, oral glucose tolerance in db/db mice; settings: for Blood glucose AUC0-2 h / Blood glucose (mmol/L) 0 min / Blood glucose (mmol/L) 15 min / Blood glucose (mmol/L) 30 min / Blood glucose (mmol/L) 60 min / Blood glucose (mmol/L) 90 min / Blood glucose (mmol/L) 120 min / AUC0-2 h reduction rate (%): glucose tolerance, chronic administration; for AUC0-2 h reduction rate (%): vs vehicle
Procedure: as §1
The glucose tolerance of mice of normal control group, model control group, test substance group and positive control group were determined 3 weeks after administration of drug, oral administrated with 1.5 g/kg of glucose, and taken 2 μL of blood on the tail. 4 μL of normal saline was added to 96 well sharp bottom plate to dilute evenly, and then the blood glucose was measured. The blood glucose levels before the sugar administration and at 15, 30, 60, 90 and 120 min after the sugar administration were measured. The true blood glucose level was calculated and the area under the blood glucose curve within 120 min was calculated by the following formula: AUC0-2h (mmol/L·h)=(BG0+BG15)×0.25/2+(BG15+BG30)×0.25/2+(BG30+BG60)×0.5/2+(BG60+[…])×1.0/2 Note: BG0, BG15, BG30, BG60 and BG120 represent the blood glucose levels before the sugar administration, and at 15, 30, 60, and 120 min after sugar administration, respectively. Average hypoglycemic rate %=(solvent control group AUC0-2h−administration group AUC0-2h)/solvent control group AUC0-2h*100%

SMILES: CCc1ccc(Cc2cc3c(cc2Cl)CO[C@]32O[C@H](C)[C@@H](O)[C@H](O)[C@H]2O)s1 [Example A28, (1S,3′R,4′S,5′S,6′R)-6′-methyl-6-((5-ethylthienyl)-2-methyl)-5-chloro-3′,4′,5′,6′-tetrahydro-3H-spiro[isobenzofuran-1,2′-pyran]-3′,4′,5′-triol]
- fasting blood glucose week 1 ([1]; 10 mg/kg once daily oral): 7.6 ± 0.6 mmol/L
- fasting blood glucose week 2 ([1]; 10 mg/kg once daily oral): 6.9 ± 0.5 mmol/L
- fasting blood glucose week 3 ([1]; 10 mg/kg once daily oral): 7.2 ± 0.6 mmol/L
- fasting blood glucose week 4 ([1]; 10 mg/kg once daily oral): 7.3 ± 0.5 mmol/L
- fasting blood glucose Pre ([1]; 10 mg/kg once daily oral, before administration): 13.8 ± 1.2 mmol/L
- Hypoglycemic rate % week 1 ([1]; 0.3 mg/kg once daily oral): 21.4%
- Hypoglycemic rate % week 2 ([1]; 0.3 mg/kg once daily oral): 52.3%
- Hypoglycemic rate % week 3 ([1]; 0.3 mg/kg once daily oral): 30.6%
- Hypoglycemic rate % week 4 ([1]; 0.3 mg/kg once daily oral): 21.1%
- Hypoglycemic rate % week 1 ([1]; 1 mg/kg once daily oral): 35.0%
- Hypoglycemic rate % week 2 ([1]; 1 mg/kg once daily oral): 57.2%
- Hypoglycemic rate % week 3 ([1]; 1 mg/kg once daily oral): 41.5%
- Hypoglycemic rate % week 4 ([1]; 1 mg/kg once daily oral): 37.8%
- Hypoglycemic rate % week 1 ([1]; 3 mg/kg once daily oral): 36.2%
- Hypoglycemic rate % week 2 ([1]; 3 mg/kg once daily oral): 69.2%
- Hypoglycemic rate % week 3 ([1]; 3 mg/kg once daily oral): 54.2%
- Hypoglycemic rate % week 4 ([1]; 3 mg/kg once daily oral): 46.8%
- Hypoglycemic rate % week 1 ([1]; 10 mg/kg once daily oral): 43.2%
- Hypoglycemic rate % week 2 ([1]; 10 mg/kg once daily oral): 68.9%
- Hypoglycemic rate % week 3 ([1]; 10 mg/kg once daily oral): 59.5%
- Hypoglycemic rate % week 4 ([1]; 10 mg/kg once daily oral): 54.5%
- effective dose, fasting blood glucose, random blood glucose and HbA1c reduction ([1]; four weeks chronic administration): 0.3 mg/kg
- HbA1c (%) ([2]; dose 0.3 mg/kg): 5.83 ± 0.36 %
- HbA1c Decline rate % ([2]; dose 0.3 mg/kg): 23.2%
- HbA1c (%) ([2]; dose 1 mg/kg): 6.02 ± 0.30 %
- HbA1c Decline rate % ([2]; dose 1 mg/kg): 20.7%
- HbA1c (%) ([2]; dose 3 mg/kg): 4.95 ± 0.37 %
- HbA1c Decline rate % ([2]; dose 3 mg/kg): 34.8%
- HbA1c (%) ([2]; dose 10 mg/kg): 4.50 ± 0.27 %
- HbA1c Decline rate % ([2]; dose 10 mg/kg): 40.7%
- improvement of oral glucose tolerance compared with Dapagliflozin ([3]; after 3 weeks of chronic administration): stronger than that of Dapagliflozin of the same dose
- Blood glucose AUC0-2 h ([3]; dose 0.3 mg/kg): 6.3 ± 1.3
- Blood glucose (mmol/L) 0 min ([3]; dose 0.3 mg/kg): 12.3 ± 0.9 mmol/L
- Blood glucose (mmol/L) 15 min ([3]; dose 0.3 mg/kg): 22.7 ± 1.4 mmol/L
- Blood glucose (mmol/L) 30 min ([3]; dose 0.3 mg/kg): 21.4 ± 1.1 mmol/L
- Blood glucose (mmol/L) 60 min ([3]; dose 0.3 mg/kg): 13.5 ± 0.7 mmol/L
- Blood glucose (mmol/L) 90 min ([3]; dose 0.3 mg/kg): 12.5 ± 0.9* * mmol/L
- Blood glucose (mmol/L) 120 min ([3]; dose 0.3 mg/kg): 10.9 ± 1.0* * mmol/L
- AUC0-2 h reduction rate (%) ([3]; dose 0.3 mg/kg): 57.2%
- Blood glucose AUC0-2 h ([3]; dose 1 mg/kg): 4.7 ± 1.9
- Blood glucose (mmol/L) 0 min ([3]; dose 1 mg/kg): 10.4 ± 1.0 mmol/L
- Blood glucose (mmol/L) 15 min ([3]; dose 1 mg/kg): 16.9 ± 0.8 mmol/L
- Blood glucose (mmol/L) 30 min ([3]; dose 1 mg/kg): 18.7 ± 0.7 mmol/L
- Blood glucose (mmol/L) 60 min ([3]; dose 1 mg/kg): 11.1 ± 0.5 mmol/L
- Blood glucose (mmol/L) 90 min ([3]; dose 1 mg/kg): 10.4 ± 0.6* * mmol/L
- Blood glucose (mmol/L) 120 min ([3]; dose 1 mg/kg): 8.7 ± 0.5 mmol/L
- AUC0-2 h reduction rate (%) ([3]; dose 1 mg/kg): 68.2%
- Blood glucose AUC0-2 h ([3]; dose 3 mg/kg): 6.1 ± 0.9
- Blood glucose (mmol/L) 0 min ([3]; dose 3 mg/kg): 8.1 ± 1.0 mmol/L
- Blood glucose (mmol/L) 15 min ([3]; dose 3 mg/kg): 16.1 ± 2.4 mmol/L
- Blood glucose (mmol/L) 30 min ([3]; dose 3 mg/kg): 17.4 ± 2.6 mmol/L
- Blood glucose (mmol/L) 60 min ([3]; dose 3 mg/kg): 9.1 ± 1.0 mmol/L
- Blood glucose (mmol/L) 90 min ([3]; dose 3 mg/kg): 8.9 ± 0.8 mmol/L
- Blood glucose (mmol/L) 120 min ([3]; dose 3 mg/kg): 6.9 ± 0.8 mmol/L
- AUC0-2 h reduction rate (%) ([3]; dose 3 mg/kg): 58.9%
- Blood glucose AUC0-2 h ([3]; dose 10 mg/kg): 2.3 ± 0.8
- Blood glucose (mmol/L) 0 min ([3]; dose 10 mg/kg): 7.2 ± 0.6 mmol/L
- Blood glucose (mmol/L) 15 min ([3]; dose 10 mg/kg): 11.3 ± 0.6 mmol/L
- Blood glucose (mmol/L) 30 min ([3]; dose 10 mg/kg): 12.3 ± 1.0 mmol/L
- Blood glucose (mmol/L) 60 min ([3]; dose 10 mg/kg): 7.1 ± 0.5 mmol/L
- Blood glucose (mmol/L) 90 min ([3]; dose 10 mg/kg): 6.5 ± 0.3 mmol/L
- Blood glucose (mmol/L) 120 min ([3]; dose 10 mg/kg): 6.2 ± 0.5 mmol/L
- AUC0-2 h reduction rate (%) ([3]; dose 10 mg/kg): 84.6%
